Where two headings read alike, the source gives them in different places.

The target of the test is human O-GlcNAcase (Homo sapiens (Human), UniProt O60502). In words: Fluorescence-based assay for determination of KI values for inhibition of O-GlcNAcase activity. The class given is biochemical. How it is done: Assay for Determination of KI Values for Inhibition of O-GlcNAcase Activity
Experimental Procedure for Kinetic Analyses
Enzymatic reactions are carried out in a reaction containing 50 mM NaH2PO4, 100 mM NaCl and 0.1% BSA (pH 7.0) using 2 mM 4-Methylumbelliferyl N-acetyl-β-D-glucosaminide dihydrate (Sigma M2133) dissolved in ddH2O, as a substrate. The amount of purified human O-GlcNAcase enzyme used in the reaction is 0.7 nM. Test compound of varying concentrations is added to the enzyme prior to initiation of the reaction. The reaction is performed at room temperature in a 96-well plate and is initiated with the addition of substrate. […] The slope of product production is determined for each concentration of compound tested and plotted, using standard curve fitting algorithms for sigmoidal dose response curves. The values for a four parameter logistic curve fit of the data are determined.

Where [1] appears, read: purified human O-GlcNAcase, 4-Methylumbelliferyl N-acetyl-β-D-glucosaminide substrate, pH 7.0, Cheng-Prusoff, read-out: Fluorescence-based hOGA Ki.

Chain of human O-GlcNAcase (O60502 whole entry): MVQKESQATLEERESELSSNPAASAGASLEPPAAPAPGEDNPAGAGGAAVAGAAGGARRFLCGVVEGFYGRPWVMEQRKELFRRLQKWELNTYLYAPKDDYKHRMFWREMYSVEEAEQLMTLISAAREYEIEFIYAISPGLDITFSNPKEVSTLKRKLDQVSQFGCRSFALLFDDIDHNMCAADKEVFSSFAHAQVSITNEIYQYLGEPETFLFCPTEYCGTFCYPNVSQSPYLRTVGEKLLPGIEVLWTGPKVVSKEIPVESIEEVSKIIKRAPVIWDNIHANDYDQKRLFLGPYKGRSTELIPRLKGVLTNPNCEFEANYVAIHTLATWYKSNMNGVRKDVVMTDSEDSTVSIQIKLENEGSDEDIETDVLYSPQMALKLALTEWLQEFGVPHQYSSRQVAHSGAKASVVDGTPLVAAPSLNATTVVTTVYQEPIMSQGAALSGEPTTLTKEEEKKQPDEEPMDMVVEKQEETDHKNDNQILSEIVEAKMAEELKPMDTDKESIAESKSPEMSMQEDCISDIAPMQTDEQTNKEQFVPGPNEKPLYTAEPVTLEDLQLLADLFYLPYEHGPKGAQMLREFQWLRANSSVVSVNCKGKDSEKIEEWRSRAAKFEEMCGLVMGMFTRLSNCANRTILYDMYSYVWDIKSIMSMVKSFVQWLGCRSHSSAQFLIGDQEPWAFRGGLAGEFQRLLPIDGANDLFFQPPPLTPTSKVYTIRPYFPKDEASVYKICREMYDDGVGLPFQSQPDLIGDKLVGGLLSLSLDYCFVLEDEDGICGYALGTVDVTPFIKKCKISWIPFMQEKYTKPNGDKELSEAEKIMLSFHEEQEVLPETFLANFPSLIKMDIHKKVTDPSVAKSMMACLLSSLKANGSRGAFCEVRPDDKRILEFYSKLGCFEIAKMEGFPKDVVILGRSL

For orientation: Ki means a dissociation constant, usually derived from enzyme kinetics or from competition with a known ligand. For `CN(C)C1=N[C@@H]2[C@@H](O)[C@H](O)[C@@H](C(C)(O)C(F)(F)F)O[C@@H]2S1` (mixture of isomers) [Example 203, (3aR,5S,6S,7R,7aR)-2-(dimethylamino)-5-((S)-1,1,1-trifluoro-2-hydroxypropan-2-yl)-5,6,7,7a-tetrahydro-3aH-pyrano[3,2-d]thiazole-6,7-diol], the Ki under setting [1] was determined as 3.16 nM.
With `CNC1=N[C@@H]2[C@@H](O)[C@H](O)[C@@H]([C@H](C)O)O[C@@H]2S1` (single isomer, unassigned) [Example 13], under setting [1], the Ki amounted to 0.4 nM.
In the case of `C=CC[C@H](O)[C@H]1O[C@@H]2SC(NC)=N[C@@H]2[C@@H](O)[C@@H]1O` (single isomer, unassigned) [Example 25], under setting [1], the Ki came out at 0.7 nM.
Same read-out and setting: with `CCNC1=N[C@@H]2[C@@H](O)[C@H](O)[C@@H]([C@H](C)O)O[C@@H]2S1` (single isomer, unassigned) [Example 27] the figure was 0.12 nM; with `C=C[C@H](O)[C@H]1O[C@@H]2SC(NCCC)=N[C@@H]2[C@@H](O)[C@@H]1O` (single isomer, unassigned) [Example 42], 1.03 nM.
As for `CCCNC1=N[C@H]2C(O[C@H]([C@@H](O)CC)[C@@H](O)[C@@H]2O)S1` (single isomer, unassigned) [Example 47], the Ki under setting [1] came to 6.4 nM.
Regarding `CON(C)C1=N[C@@H]2[C@@H](O)[C@H](O)[C@@H]([C@H](C)O)O[C@@H]2S1` (single isomer, unassigned) [Example 51], the Ki stood at 5.1 nM.
As for `C[C@H](O)[C@H]1O[C@@H]2SC(NCC3CC3)=N[C@@H]2[C@@H](O)[C@@H]1O` (single isomer, unassigned) [Example 53], the Ki under setting [1] stood at 0.7 nM.
On the same count and under the same terms, with `CCN(C)C1=N[C@H]2C(O[C@H]([C@H](C)O)[C@@H](O)[C@@H]2O)S1` (single isomer, unassigned) [Example 57] the figure was 0.33 nM; with `C=CC(O)C1O[C@@H]2SC(N(C)CC)=N[C@@H]2[C@@H](O)[C@@H]1O` (single isomer, unassigned) [Example 61], 2.46 nM.
As for `C=C[C@H](O)[C@H]1O[C@@H]2SC(N(C)C)=N[C@@H]2[C@@H](O)[C@@H]1O` (single isomer, unassigned) [Example 63], the Ki under setting [1] turned out to be 0.22 nM.
For `C=C(C)[C@H](O)[C@H]1O[C@@H]2SC(N(C)C)=N[C@@H]2[C@@H](O)[C@@H]1O` (single isomer, unassigned) [Example 65], the Ki under setting [1] came out at 0.45 nM.
Consider `C=CC[C@H](O)[C@H]1O[C@@H]2SC(N(C)C)=N[C@@H]2[C@@H](O)[C@@H]1O` (single isomer, unassigned) [Example 67], for which, under setting [1], the Ki worked out at 1.25 nM.
For `CCC[C@H](O)[C@H]1O[C@@H]2SC(N(C)C)=N[C@@H]2[C@@H](O)[C@@H]1O` (single isomer, unassigned) [Example 69], the Ki under setting [1] is 9.36 nM.
Still for that read-out and setting: with `CCCC[C@H](O)[C@H]1O[C@@H]2SC(N(C)C)=N[C@@H]2[C@@H](O)[C@@H]1O` (single isomer, unassigned) [Example 71] the figure was 9.12 nM; with `C[C@H](O)[C@H]1O[C@@H]2SC(N3CCC3)=N[C@@H]2[C@@H](O)[C@@H]1O` (single isomer, unassigned) [Example 76], 0.18 nM; with `C=C[C@H](O)[C@H]1O[C@@H]2SC(N3CCC3)=N[C@@H]2[C@@H](O)[C@@H]1O` (single isomer, unassigned) [Example 80], 0.5 nM.
With `C=CC[C@H](O)[C@H]1O[C@@H]2SC(N3CCC3)=N[C@@H]2[C@@H](O)[C@@H]1O` (single isomer, unassigned) [Example 82], the Ki under setting [1] is 5.84 nM.
On to `C[C@H](O)[C@H]1O[C@@H]2SC(N3CCCC3)=N[C@@H]2[C@@H](O)[C@@H]1O` (single isomer, unassigned) [Example 91], for which the Ki under setting [1] was determined as 0.53 nM.
The same measure, in the same setting: with `CNC1=N[C@@H]2[C@@H](O)[C@H](O)[C@@H]([C@@H](C)F)O[C@@H]2S1` (single isomer, unassigned) [Example 181] the figure was 0.8 nM; with `CCN(C)C1=N[C@@H]2[C@@H](O)[C@H](O)[C@@H]([C@@H](O)C(F)(F)F)O[C@@H]2S1` (single isomer, unassigned) [Example 211], 0.44 nM.
Regarding `C[C@H](O)[C@H]1O[C@@H]2SC(N(C)C)=N[C@@H]2[C@@H](O)[C@@H]1O` [Example 1, (3aR,5R,6S,7R,7aR)-2-(Dimethylamino)-5-((S)-1-hydroxyethyl)-5,6,7,7a-tetrahydro-3aH-pyrano[3,2-d]thiazole-6,7-diol], the Ki under setting [1] was found to be 0.17 nM.
Same read-out and setting: with `CCCNC1=N[C@@H]2[C@@H](O)[C@H](O)[C@@H]([C@H](C)O)O[C@@H]2S1` [Example 2, (3aR,5R,6S,7R,7aR)-5-((S)-1-hydroxyethyl)-2-(propylamino)-5,6,7,7a-tetrahydro-3aH-pyrano[3,2-d]thiazole-6,7-diol] the figure was 0.05 nM.
As for `CNC1=N[C@@H]2[C@@H](O)[C@H](O)[C@@H](C(C)(C)O)O[C@@H]2S1` [Example 3, (3aR,5S,6S,7R,7aR)-5-(2-Hydroxypropan-2-yl)-2-(methylamino)-5,6,7,7a-tetrahydro-3aH-pyrano[3,2-d]thiazole-6,7-diol], under setting [1], the Ki worked out at 0.9 nM.
For the molecule `CN(C)C1=N[C@@H]2[C@@H](O)[C@H](O)[C@@H](C(C)(C)O)O[C@@H]2S1` [Example 4, (3aR,5S,6S,7R,7aR)-2-(dimethylamino)-5-(2-hydroxypropan-2-yl)-5,6,7,7a-tetrahydro-3aH-pyrano[3,2-d]thiazole-6,7-diol], the Ki under setting [1] was 3.1 nM.
The same measure, in the same setting: with `CC[C@H]1O[C@@H]2SC(NC)=N[C@@H]2[C@@H](O)[C@@H]1O` [Example 8, (3aR,5R,6S,7R,7aR)-5-Ethyl-2-(methylamino)-5,6,7,7a-tetrahydro-3aH-pyrano[3,2-d]thiazole-6,7-diol] the figure was 0.68 nM.
As to `CN(C)C1=N[C@@H]2[C@@H](O)[C@H](O)[C@@H]([C@@H](O)C(F)(F)F)O[C@@H]2S1` [Example 11, (3aR,5S,6S,7R,7aR)-2-(dimethylamino)-5-((R)-2,2,2-trifluoro-1-hydroxyethyl)-5,6,7,7a-tetrahydro-3aH-pyrano[3,2-d]thiazole-6,7-diol], under setting [1], the Ki worked out at 0.3 nM.
Same read-out and setting: with `CC(C)(O)[C@H]1O[C@@H]2SC(N3CCC3)=N[C@@H]2[C@@H](O)[C@@H]1O` [Example 77, (3aR,5S,6S,7R,7aR)-2-(azetidin-1-yl)-5-(2-hydroxypropan-2-yl)-5,6,7,7a-tetrahydro-3aH-pyrano[3,2-d]thiazole-6,7-diol] the figure was 16.3 nM; with `CNC1=N[C@@H]2[C@@H](O)[C@H](O)[C@@H]([C@@H](O)C(F)(F)F)O[C@@H]2S1` [Example 95, (3aR,5S,6S,7R,7aR)-2-(methylamino)-5-((R)-2,2,2-trifluoro-1-hydroxyethyl)-5,6,7,7a-tetrahydro-3aH-pyrano[3,2-d]thiazole-6,7-diol], 0.16 nM.
As for `CCCNC1=N[C@@H]2[C@@H](O)[C@H](O)[C@@H]([C@@H](O)C(F)(F)F)O[C@@H]2S1` [Example 97, (3aR,5S,6S,7R,7aR)-2-(propylamino)-5-((R)-2,2,2-trifluoro-1-hydroxyethyl)-5,6,7,7a-tetrahydro-3aH-pyrano[3,2-d]thiazole-6,7-diol], the Ki under setting [1] was 0.17 nM.
On to `CON(C)C1=N[C@@H]2[C@@H](O)[C@H](O)[C@@H]([C@@H](O)C(F)(F)F)O[C@@H]2S1` [Example 98, (3aR,5S,6S,7R,7aR)-2-(methoxy(methyl)amino)-5-((R)-2,2,2-trifluoro-1-hydroxyethyl)-5,6,7,7a-tetrahydro-3aH-pyrano[3,2-d]thiazole-6,7-diol], for which the Ki under setting [1] came out at 1.43 nM.
On the same count and under the same terms, with `C[C@@H](O)[C@H]1O[C@@H]2SC(N(C)C)=N[C@@H]2[C@@H](O)[C@@H]1O` [Example 104, (3aR,5R,6S,7R,7aR)-2-(dimethylamino)-5-((R)-1-hydroxyethyl)-5,6,7,7a-tetrahydro-3aH-pyrano[3,2-d]thiazole-6,7-diol] the figure was 3.63 nM; with `CCNC1=N[C@@H]2[C@@H](O)[C@H](O)[C@@H]([C@@H](O)CC)O[C@@H]2S1` [Example 105, (3aR,5R,6S,7R,7aR)-2-(ethylamino)-5-((S)-1-hydroxypropyl)-5,6,7,7a-tetrahydro-3aH-pyrano[3,2-d]thiazole-6,7-diol], 3.4 nM.
Same read-out and setting: with `C[C@H](O)[C@H]1O[C@@H]2SC(NCCF)=N[C@@H]2[C@@H](O)[C@@H]1O` [Example 141, (3aR,5R,6S,7R,7aR)-2-(2-Fluoroethylamino)-5-((S)-1-hydroxyethyl)-5,6,7,7a-tetrahydro-3aH-pyrano[3,2-d]thiazole-6,7-diol] the figure was 0.82 nM; with `CNC1=N[C@@H]2[C@@H](O)[C@H](O)[C@@H](C(C)(O)C(F)(F)F)O[C@@H]2S1` (stereo partly drawn) [Example 159, (3aR,5S,6S,7R,7aR)-2-(methylamino)-5-(1,1,1-trifluoro-2-hydroxypropan-2-yl)-5,6,7,7a-tetrahydro-3aH-pyrano[3,2-d]thiazole-6,7-diol], 1.25 nM; with `CNC1=N[C@@H]2[C@@H](O)[C@H](O)[C@@H]([C@@H](O)C(F)F)O[C@@H]2S1` [Example 191, (3aR,5S,6S,7R,7aR)-5-((R)-2,2-difluoro-1-hydroxyethyl)-2-(methylamino)-5,6,7,7a-tetrahydro-3aH-pyrano[3,2-d]thiazole-6,7-diol], 0.14 nM.
`O[C@H]1[C@H](O)[C@@H]([C@H](O)C(F)(F)F)O[C@@H]2SC(NCCF)=N[C@H]12` [Example 215, (3aR,5S,6S,7R,7aR)-2-(2-fluoroethylamino)-5-((S)-2,2,2-trifluoro-1-hydroxyethyl)-5,6,7,7a-tetrahydro-3aH-pyrano[3,2-d]thiazole-6,7-diol]: under setting [1], the Ki worked out at 1.8 nM.

Source of the values: patent US8901087B2, “Selective glycosidase inhibitors and uses thereof” (priority 2010, dated 2014).
